Results as given in PubChem BioAssay (NCI).
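The compound was tested at five concentrations on cells cultured in 96-well plates, with a 48-hour exposure period. At the TGI there is no net growth.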

How the values were obtained:
Assay in all cases: inhibition of tumour cell growth, NCI panel, 48 h
A549 NSCLC = tested on: A549 NSCLC
ACHN renal = tested on: ACHN renal
CAKI-1 renal = tested on: CAKI-1 renal
COLO 205 colon = tested on: COLO 205 colon
EKVX NSCLC = tested on: EKVX NSCLC
HCT-15 colon = tested on: HCT-15 colon
HL-60(TB) leukemia = tested on: HL-60(TB) leukemia
HOP-62 NSCLC = tested on: HOP-62 NSCLC
HOP-92 NSCLC = tested on: HOP-92 NSCLC
IGROV1 ovarian = tested on: IGROV1 ovarian
M14 melanoma = tested on: M14 melanoma
NCI-H226 lung = tested on: NCI-H226 lung
NCI-H460 lung = tested on: NCI-H460 lung
OVCAR-4 ovarian = tested on: OVCAR-4 ovarian
OVCAR-5 ovarian = tested on: OVCAR-5 ovarian
PC-3 prostate = tested on: PC-3 prostate
SK-OV-3 ovarian = tested on: SK-OV-3 ovarian
LOX IMVI melanoma = tested on: LOX IMVI melanoma
UO-31 renal = tested on: UO-31 renal

| Structure (SMILES) | TGI (A549 NSCLC) [µM] | TGI (ACHN renal) [µM] | TGI (CAKI-1 renal) [µM] | TGI (COLO 205 colon) [µM] | TGI (EKVX NSCLC) [µM] | TGI (HCT-15 colon) [µM] | TGI (HL-60(TB) leukemia) [µM] | TGI (HOP-62 NSCLC) [µM] | TGI (HOP-92 NSCLC) [µM] | TGI (IGROV1 ovarian) [µM] | TGI (M14 melanoma) [µM] | TGI (NCI-H226 lung) [µM] | TGI (NCI-H460 lung) [µM] | TGI (OVCAR-4 ovarian) [µM] | TGI (OVCAR-5 ovarian) [µM] | TGI (PC-3 prostate) [µM] | TGI (SK-OV-3 ovarian) [µM] | TGI (LOX IMVI melanoma) [µM] | TGI (UO-31 renal) [µM] |
| --- | --- | --- | --- | --- | --- | --- | --- | --- | --- | --- | --- | --- | --- | --- | --- | --- | --- | --- | --- |
| CC(CC[C@@H](O)C(C)(C)O)C1[C@@H](O)CC2(C)C3CC(O)C4C(C)(C)[C@@H](OC5OC(CO)C(O)C(O)C5O)CC[C@@]45C[C@@]35CC[C@]12C (stereo not given in full) | > 10 | > 10 | > 10 | > 10 | > 10 | > 10 | > 10 | > 10 | > 10 | > 10 | > 10 | > 10 | > 10 | > 10 | > 10 | > 10 | > 10 | – | – |
| CCCCCC(C/C=N/N(C)C)C(O)(C(F)(F)F)C(F)(F)F (stereo not given) | > 100 | 52.7 | > 100 | 30.5 | > 100 | > 100 | 31.6 | > 100 | 78.2 | 74.5 | > 100 | > 100 | > 100 | > 100 | > 100 | > 100 | > 100 | > 100 | > 100 |
| COc1c2cc(C(C)(C)C)cc1Cc1cccc(c1OCc1cccc([N+](=O)[O-])c1)Cc1cc(C(C)(C)C)cc(c1OC)Cc1cccc(c1OCc1cccc([N+](=O)[O-])c1)Cc1cc(C(C)(C)C)cc(c1OC)Cc1cccc(c1OCc1cccc([N+](=O)[O-])c1)C2 | > 50 | > 50 | > 50 | > 50 | > 50 | > 50 | > 50 | > 50 | > 50 | > 50 | > 50 | – | > 50 | – | > 50 | > 50 | – | – | > 50 |
| C[C@@]1(O)C[C@@H](N2C(=O)O[C@@H](c3ccccc3)[C@H]2c2ccccc2)[C@@H]1COCc1ccccc1 | 97.9 | > 100 | > 100 | 36.4 | 70.3 | 84.3 | 23.5 | 75.3 | 89 | > 100 | 30 | 42.8 | 68.1 | > 100 | 78.2 | 50.3 | – | 32.9 | 67.8 |
| O=C1/C(=c2\s/c(=C\c3ccccc3)c(=O)n2-c2ccccc2)SC(=S)N1c1ccccc1 | > 100 | 76.2 | > 100 | > 100 | > 100 | > 100 | > 100 | – | > 100 | 87.2 | > 100 | 89.4 | > 100 | > 100 | > 100 | > 100 | 52.1 | > 100 | – |
| CN1CCc2c3n(c4cc(Br)ccc24)[C@H](O)CCCC31 (stereo not given in full) | > 10 | > 10 | > 7.17 | 3.24 | > 10 | > 5.77 | 4.15 | > 10 | > 9.12 | > 10 | 3.24 | > 10 | 2.97 | > 7.44 | > 10 | > 10 | > 10 | 3.29 | > 10 |
